This is an account of results in the OPERA property sets (Mansouri et al. 2018).

By melting point is commonly meant the temperature of the solid-liquid transition. As usually defined, the boiling point is the temperature at which the vapour pressure of the liquid equals the pressure above it.

Settings in one series: not given
On to `Cc1c(Br)c(Br)c(Br)c(Br)c1Br`, for which the melting point amounted to 288 °C and the ready biodegradability result was “not readily biodegradable”.

For the compound `CCC(C)SC(C)CC` (stereo not given), the boiling point turned out to be 165 °C.

For the compound `N#CCCNCCC#N`, the ready biodegradability entry was “not readily biodegradable”.

`CCCCCC=CC=O` displayed a log10 Henry constant (atm·m³/mol) of -4.13.

As to `Cc1ccc2c(c1)CCCC2(C)C`, the boiling point stood at 240 °C.

Take `O=CC(Br)(Br)Br`: the boiling point was 174 °C, the log10 vapour pressure (mmHg) was 0.183 and the melting point is -57.5 °C.

In turn, `O=C1c2c(O)cccc2Cc2cccc(O)c21` came in with a melting point of 179 °C.

`O=C(O)c1cccc(C(=O)O)c1O` displayed a melting point of 244 °C.

`CCOCCOC(=O)C(C)Oc1ccc(Oc2ncc(C(F)(F)F)cc2Cl)cc1` (stereo not given) gave a log10 vapour pressure (mmHg) of -10.9 and a melting point of 60 °C.

In turn, `CN(C)B(F)N(C)C` displayed a boiling point of 106 °C and a melting point of -44.3 °C.

Compound `CC(C)OC(=O)C(C)C` yielded a boiling point of 121 °C and a log10 vapour pressure (mmHg) of 1.2.

`OCC1=CCN2CC[C@@H](O)[C@@H]12` registered a melting point of 120 °C.

Take `CC(=O)OCCN(CCC#N)c1ccc(N=Nc2nc3ccc([N+](=O)[O-])cc3s2)cc1`: the melting point was 167 °C.

On to `Cc1ccc(C)c([N+](=O)[O-])c1`, for which the boiling point was 240 °C and the melting point is -25 °C.

`CC(C)(C)OC(C)(C)C` displayed a boiling point of 107 °C and a log10 vapour pressure (mmHg) of 1.51.

In turn, `FCCCF` displayed a boiling point of 41.6 °C.

For `CC(C)NCC(O)COc1cccc2ccccc12.Cl` (stereo not given), the melting point stood at 164 °C.

`C[C@]12CCC(=O)C(O)=C1CC[C@@H]1[C@@H]2CC[C@@]2(C)[C@H]1CC[C@]2(C)O`: the melting point is 170 °C.

Consider `SC(c1ccccc1)(c1ccccc1)c1ccccc1`, for which the melting point was found to be 105 °C.

`O=C1[C@@H]2C[C@H](CN3CCCC[C@@H]23)[C@H]2CCCCN12` gave a melting point of 111 °C.

Turning to `COC(=O)C1(S(=O)(=O)c2ccc(Cl)cc2)CCC1`, the melting point worked out at 76.2 °C.

For `CN1[C@@H](CC(=O)c2ccccc2)CCC[C@H]1C[C@H](O)c1ccccc1`, the melting point is 130 °C.

For `ClCBr`, the boiling point turned out to be 68 °C, the log10 vapour pressure (mmHg) was determined as 2.15, the melting point was -87.9 °C and the ready biodegradability result is “not readily biodegradable”.

`CC(CC1CCCCC1)C1CCCCC1` (stereo not given) returned a boiling point of 284 °C and a melting point of -22 °C.

`FCOC(C(F)(F)F)C(F)(F)F` returned a boiling point of 58.5 °C and a log10 vapour pressure (mmHg) of 2.29.

The compound `CCCCOC(=O)c1ccccc1C(=O)O` came in with a melting point of 73.5 °C.

In turn, `[N-]=[N+]=NC(=O)c1ccccc1` gave a melting point of 32 °C.

As to `CCCCOCN(C(=O)CCl)c1c(CC)cccc1CC`, the log10 Henry constant (atm·m³/mol) is -7.29, the log10 Koc (L/kg) was determined as 2.86, the log10 vapour pressure (mmHg) was -5.54 and the melting point was -2.8 °C.

`O=C[O-].[K+]` showed a melting point of 167 °C.

Consider `CCCCCCCCCCCCCCCCCCCCCCCCCCCCCCC`, for which the boiling point is 458 °C, the log10 biodegradation half-life (days) worked out at 2.44, the log10 vapour pressure (mmHg) was -10.9 and the melting point is 67.9 °C.

`CCC(C)CC(C)(C)CC` (stereo not given) showed a boiling point of 156 °C.

For the compound `CC1=CCCC(C)(C)C1CO` (stereo not given), the boiling point came to 215 °C.

`CCC(Br)(CC)C(N)=O` had a melting point of 67 °C.

The compound `N#Cc1ccc([N+](=O)[O-])cc1` displayed a melting point of 148 °C.

Compound `NNC(=O)c1ccc(N)cc1O` returned a melting point of 195 °C.

Compound `COCC1CO1` (stereo not given) yielded a boiling point of 113 °C.

`O=Cc1cccc(Br)c1`: the boiling point amounted to 234 °C.

As for `c1ccc(-c2nc3ccccc3[nH]2)cc1`, the melting point was found to be 293 °C.

In turn, `Clc1cc(-c2c(Cl)cc(Cl)c(Cl)c2Cl)c(Cl)c(Cl)c1Cl` had a log10 Henry constant (atm·m³/mol) of -5.

`CC1=CCc2ccccc21` yielded a boiling point of 198 °C and a log10 biodegradation half-life (days) of 0.477.

`CCOC(=O)c1cccc(N)c1`: the boiling point is 294 °C.

Take `C=Cc1ccc(OC)cc1`: the boiling point turned out to be 205 °C.

The compound `Cn1c(=S)sc2ccccc21` yielded a boiling point of 335 °C and a melting point of 90 °C.

Staying with this series, now noted: fish.
With `Cc1c(Br)c(Br)c(Br)c(Br)c1Br`, the log10 BCF turned out to be 2.43 and the log10 biotransformation half-life (days) is -0.13.

Compound `N#CCCNCCC#N` gave a log10 BCF of 0.08.

For the compound `Cc1ccc2c(c1)CCCC2(C)C`, the log10 biotransformation half-life (days) stood at 0.83.

For the compound `ClCBr`, the log10 BCF turned out to be 0.6 and the log10 biotransformation half-life (days) was -0.74.
